Experimental data published in patent US7226922B2 (dated 2007).

melting point: 164 to 166 °C
SMILES: Cc1cnn2c(-c3cccc(-c4ccccc4C#N)c3)cnc2c1
